Source: patent publication EP1353942B1, “PEPTIDE INHIBITORS OF HIV ENTRY” (WHITEHEAD INSTITUTE FOR BIOMEDICAL RESEARCH, priority 2000, dated 2010)
Like-named read-outs stand apart in the source and are kept apart here.

Experiments:
[1] = target: HIV-1 gp41 (C peptide region), from HXB2 gp160 envelope on pseudotyped virus (HIV-1 (HXB2)) (UniProt P04578); test: cell-based or functional assay
[2] = test system: HIV-1
Experimental: HIV Infectivity Assay. Inhibitory activity was determined in an HIV luciferase assay (Chen et al., 1994). Specifically, virus was made by cotransfecting 293T cells with an HIV-1 genome containing a frame-shift mutation in env and luciferase replacing the nef gene (NL43LucR-E-) along with pCMVHXB2, an expression vector with the HXB2 gp160 gene. The resultant virus is only viable for one round of infection since its genome lacks the envelope gene. The cellular debris was removed by low-speed centrifugation. The remaining viral supernatant was used to infect HOS-CD4/Fusion cells (N. Landau, National Institutes of Health AIDS Reagent Program) in the presence of the potentially inhibitory peptides. Two days post-infection, the cells were lysed and luciferase activity was monitored on a Wallac AutoLumat LB953 luminometer (Gaithersburg, MD). IC50s (the peptide concentration at which half of the viral infection is inhibited) were calculated by fitting the data to a Langmuir equation [y = k/(1+[peptide]/IC50)], where y = luciferase activity and k is a scaling constant.

[3] = Circular dichroism (ellipticity at 222 nm, helicity); assay type: physicochemical; details: IZN17 at 20 µM
Experimental: (§1) Circular Dichroism. All CD measurements were performed on an Aviv 62 DS cirucular dichroism spectrometer. Standard scans were performed on 10 µM solutions of peptide in PBS (50 mM sodium phosphate, 150 mM sodium chloride [pH 7.4]) from 200 to 260 nm in a 1 cm pathlength cuvette with a 5 second averaging time. The mean residue ellipticity (θ) was calculated by dividing the raw signal by peptide concentration (M), pathlength (mm) and number of amino acids. Percent helicity was calculated according to Chen et al. (Biochemistry, 13, 1974, p3350). Thermal denaturation scans of 10 µM peptide solutions in PBS were recorded at 222 nm. The peptide was heated at two degree intervals starting at 4°C, with an equilibration time of 1.5 minutes and an averaging time of 60 seconds.
The following Table summarizes the biophysical data and inhibitory activity for the chimeric coiled coil N peptides. The first column (θ222nm) is circular dichroism data, representing the helicity of each peptide. The lower the number, the more helical. The second column is the melting temperature and signifies the temperature at which half of the peptide is unfolded. The next column (Mobs/Mcalc) signifies the oligomeric state of the peptide, with 3.0 being a discrete trimer. The final column is the concentration at which each peptide is at half maximal inhibitory potency for viral infection. Table 1. […]

[4] = Thermal denaturation followed by circular dichroism at 222 nm; assay type: physicochemical
Experimental: as §1
(§2) The following Table summarizes the biophysical data and inhibitory activity for the chimeric coiled coil N peptides. The first column (θ222nm) is circular dichroism data, representing the helicity of each peptide. The lower the number, the more helical. The second column is the melting temperature and signifies the temperature at which half of the peptide is unfolded. The next column (Mobs/Mcalc) signifies the oligomeric state of the peptide, with 3.0 being a discrete trimer. The final column is the concentration at which each peptide is at half maximal inhibitory potency for viral infection. Table 1. Biophysical data and HIV-1 inhibitory activity
(§3) The second column is the ellipticity at 222 nm of a 20 µM solution of peptide in PBS. The third column lists the midpoint of thermal denaturation of 10 µM solutions of peptide in PBS.

[5] = Sedimentation equilibrium (analytical ultracentrifugation); assay type: physicochemical; details: for Mobs/Mcalc: 20 µM peptide solutions in PBS, 3.0 being a discrete trimer
Experimental: Sedimentation Equilibrium. All measurements were recorded on a Beckman XL-A analytical ultracentrifuge equipped with an An-60 Ti rotor. Lyophilized peptide was resuspended in water, and the peptide concentration was determined (Edelhoch, 1967). The solution was diluted to 100-200 µM and then dialized overnight against PBS. Following dialysis, the concentration was redetermined and the appropriate dilutions were made, using the dialysis buffer. The samples were centrifuged at speeds ranging from 19,000 to 25,000 RPM.
as §2, §3

For IZN17 (peptide), the IC50 (nm), HIV-1 luciferase viral infectivity assay (HXB2 env pseudotyped virus on HOS-CD4/Fusin cells) [1] was 5.6 nM.
For “Ac-IKKEIEAIKKEQEAIKKKIEAIEKLLQLTVWGIKQLQARIL-NH2 [IZN17]”, the IC50 ([2]; concentration of peptide at which half of viral infectivity is inhibited, HOS-CD4/Fusion cells, HXB2 envelope, tentative values) was 5.6 nM, the IC50 ([2]; read-out: IC50 in the viral infectivity assay, viral infectivity assay) was roughly 5.6 nM and the “helicity (in words)” value [3] was “helical”. For the same substance, the “thermal denaturation temperature relative to IQN17” value ([4]; In 2 M GuHCl) was “ten degrees higher”, the “Melting Temperature” value ([4]; midpoint of thermal denaturation of 10 µM solutions of peptide in PBS) was greater than 100 °C and the “melt (thermal unfolding)” value ([4]; no denaturant) was “above 100 °C”. For the same substance, the Mobs/Mcalc [5] was 3.05 and the “oligomeric state (in words)” value ([5]; sedimentation equilibrium, IZN17 at 20 µM) was “discretely trimeric”.
With “Ac-YGGIKKEIEAIKKEQEAIKKKIEAIEKEIVQARQLLSGIVQQQNNLLRAIEAQQH-NH2 [IZN26]” the Mobs/Mcalc [5] was “∼2.87”.
